Biological target: JAK1 (Homo sapiens (Human), UniProt P23458)
Experiment: Analysis of JAK1 activity inhibition ability (ADP-Glo Kinase Assay)
Format: biochemical
Conditions: JAK1 enzyme, ADP-Glo luminescence, ATP 250 uM, IRS-itide substrate, 30° C. 40 minutes; read-out: IC50
Outline: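 ADP-Glo luminescence read-out of ADP production, with IC50 taken as the concentration halving JAK1 activity relative to control. Enzyme was incubated 40 min at 30 °C with compound, IRS-itide (40 ng/mL) and ATP (250 uM), concentrations as prepared in pH 7.5 Tris-HCl/MgCl2/BSA/DTT buffer.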

Chain of JAK1 (P23458 whole entry): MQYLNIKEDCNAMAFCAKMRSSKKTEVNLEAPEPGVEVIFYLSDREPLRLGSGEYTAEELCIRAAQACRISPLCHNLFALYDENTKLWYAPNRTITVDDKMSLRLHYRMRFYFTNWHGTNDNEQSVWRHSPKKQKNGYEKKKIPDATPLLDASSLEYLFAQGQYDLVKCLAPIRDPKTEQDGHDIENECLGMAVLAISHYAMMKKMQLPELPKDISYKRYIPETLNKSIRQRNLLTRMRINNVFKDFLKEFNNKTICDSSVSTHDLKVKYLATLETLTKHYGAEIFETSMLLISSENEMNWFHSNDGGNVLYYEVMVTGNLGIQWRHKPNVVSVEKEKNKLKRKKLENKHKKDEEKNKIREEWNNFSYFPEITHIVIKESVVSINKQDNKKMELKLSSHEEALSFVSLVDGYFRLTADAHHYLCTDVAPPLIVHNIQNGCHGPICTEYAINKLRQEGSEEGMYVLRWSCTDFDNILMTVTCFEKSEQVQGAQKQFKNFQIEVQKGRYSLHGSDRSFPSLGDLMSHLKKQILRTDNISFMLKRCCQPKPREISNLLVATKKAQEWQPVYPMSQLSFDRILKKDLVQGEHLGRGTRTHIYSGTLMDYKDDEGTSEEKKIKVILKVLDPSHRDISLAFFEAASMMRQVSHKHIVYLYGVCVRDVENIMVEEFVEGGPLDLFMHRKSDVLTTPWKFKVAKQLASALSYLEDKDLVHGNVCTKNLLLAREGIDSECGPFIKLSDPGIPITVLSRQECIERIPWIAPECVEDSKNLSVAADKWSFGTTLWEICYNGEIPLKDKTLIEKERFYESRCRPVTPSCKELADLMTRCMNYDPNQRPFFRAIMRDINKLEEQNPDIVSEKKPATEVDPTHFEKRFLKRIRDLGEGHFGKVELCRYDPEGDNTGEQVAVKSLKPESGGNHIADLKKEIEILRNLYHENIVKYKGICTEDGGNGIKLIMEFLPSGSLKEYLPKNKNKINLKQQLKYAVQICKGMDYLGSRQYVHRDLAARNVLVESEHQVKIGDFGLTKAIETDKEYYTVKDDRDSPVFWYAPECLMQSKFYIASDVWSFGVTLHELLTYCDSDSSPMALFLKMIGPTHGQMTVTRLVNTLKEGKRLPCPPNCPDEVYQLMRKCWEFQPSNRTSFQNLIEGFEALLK

| IC50 [nM] | Structure (SMILES) |
| --- | --- |
| > 200 | CCS(=O)(=O)Nc1ccc(-c2cc(NC(=O)C3CC3)nc3[nH]ccc23)nc1F [Example 149, N-(4-(5-(ethylsulfonamido)-6-fluoropyridin-2-yl)-1H-pyrrolo[2,3-b]pyridin-6-yl)cyclopropanecarboxamide] |
| > 200 | CCCS(=O)(=O)Nc1ccc(-c2cc(NC(=O)C3CC3)nc3[nH]ccc23)nc1F [Example 150, N-(4-(6-fluoro-5-(propylsulfonamido)pyridin-2-yl)-1H-pyrrolo[2,3-b]pyridin-6-yl)cyclopropanecarboxamide] |
| 20 to 200 | CCS(=O)(=O)NC1CC=C(c2cc(NC(=O)C3CC3)nc3[nH]ccc23)CC1 (stereo not drawn) [Example 151, N-(4-(4-(ethylsulfonamido)cyclohex-1-en-1-yl)-1H-pyrrolo[2,3-b]pyridin-6-yl)cyclopropanecarboxamide] |
| 20 to 200 | CCCS(=O)(=O)NC1CC=C(c2cc(NC(=O)C3CC3)nc3[nH]ccc23)CC1 (stereo not drawn) [Example 152, N-(4-(4-(propylsulfonamido)cyclohex-1-en-1-yl)-1H-pyrrolo[2,3-b]pyridin-6-yl)cyclopropanecarboxamide] |
| 20 to 200 | O=C(Nc1cc(C2=CCC(NS(=O)(=O)C(F)(F)F)CC2)c2cc[nH]c2n1)C1CC1 (stereo not drawn) [Example 153, N-(4-(4-((trifluoromethyl)sulfonamido)cyclohex-1-en-1-yl)-1H-pyrrolo[2,3-b]pyridin-6-yl)cyclopropanecarboxamide] |
| 20 to 200 | O=C(Nc1cc(C2=CCC(NS(=O)(=O)C3CC3)CC2)c2cc[nH]c2n1)C1CC1 (stereo not drawn) [Example 154, N-(4-(4-(cyclopropanesulfonamido)cyclohex-1-en-1-yl)-1H-pyrrolo[2,3-b]pyridin-6-yl)cyclopropanecarboxamide] |
| < 20 | N#CCCS(=O)(=O)NC1CC=C(c2cc(NC(=O)C3CC3)nc3[nH]ccc23)CC1 (stereo not drawn) [Example 155, N-(4-(4-((2-cyanoethyl)sulfonamido)cyclohex-1-en-1-yl)-1H-pyrrolo[2,3-b]pyridin-6-yl)cyclopropanecarboxamide] |
| < 20 | N#CCC1(CS(=O)(=O)NC2CC=C(c3cc(NC(=O)C4CC4)nc4[nH]ccc34)CC2)CC1 (stereo not drawn) [Example 156, N-(4-(4-(((1-(cyanomethyl)cyclopropyl)methyl)sulfonamido)cyclohex-1-en-1-yl)-1H-pyrrolo[2,3-b]pyridin-6-yl)cyclopropanecarboxamide] |
| < 20 | N#CC1(CS(=O)(=O)NC2CC=C(c3cc(NC(=O)C4CC4)nc4[nH]ccc34)CC2)CC1 (stereo not drawn) [Example 157, N-(4-(4-(((1-cyanocyclopropyl)methyl)sulfonamido)cyclohex-1-en-1-yl)-1H-pyrrolo[2,3-b]pyridin-6-yl)cyclopropanecarboxamide] |
| < 20 | N#CCCCS(=O)(=O)NC1CC=C(c2cc(NC(=O)C3CC3)nc3[nH]ccc23)CC1 (stereo not drawn) [Example 158, N-(4-(4-((3-cyanopropyl)sulfonamido)cyclohex-1-en-1-yl)-1H-pyrrolo[2,3-b]pyridin-6-yl)cyclopropanecarboxamide] |
| < 20 | O=C(Nc1cc(C2=CCC(NS(=O)(=O)CCCF)CC2)c2cc[nH]c2n1)C1CC1 (stereo not drawn) [Example 159, N-(4-(4-((3-fluoropropyl)sulfonamido)cyclohex-1-en-1-yl)-1H-pyrrolo[2,3-b]pyridin-6-yl)cyclopropanecarboxamide] |
| < 20 | C=CCS(=O)(=O)NC1CC=C(c2cc(NC(=O)C3CC3)nc3[nH]ccc23)CC1 (stereo not drawn) [Example 160, N-(4-(4-(allylsulfonamido)cyclohex-1-en-1-yl)-1H-pyrrolo[2,3-b]pyridin-6-yl)cyclopropanecarboxamide] |
| < 20 | O=C(Nc1cc(C2=CCC(NS(=O)(=O)CC3CC3)CC2)c2cc[nH]c2n1)C1CC1 (stereo not drawn) [Example 161, N-(4-(4-((cyclopropylmethyl)sulfonamido)cyclohex-1-en-1-yl)-1H-pyrrolo[2,3-b]pyridin-6-yl)cyclopropanecarboxamide] |
| < 20 | O=C(Nc1cc(C2=CCC(NS(=O)(=O)c3ccc(F)c(F)c3)CC2)c2cc[nH]c2n1)C1CC1 (stereo not drawn) [Example 162, N-(4-(4-((3,4-difluorophenyl)sulfonamido)cyclohex-1-en-1-yl)-1H-pyrrolo[2,3-b]pyridin-6-yl)cyclopropanecarboxamide] |
| < 20 | O=C(Nc1cc(C2=CCC(NS(=O)(=O)c3cccc(F)c3)CC2)c2cc[nH]c2n1)C1CC1 (stereo not drawn) [Example 163, N-(4-(4-((3-fluorophenyl)sulfonamido)cyclohex-1-en-1-yl)-1H-pyrrolo[2,3-b]pyridin-6-yl)cyclopropanecarboxamide] |
| < 20 | N#Cc1ccc(S(=O)(=O)NC2CC=C(c3cc(NC(=O)C4CC4)nc4[nH]ccc34)CC2)cc1 (stereo not drawn) [Example 164, N-(4-(4-((4-cyanophenyl)sulfonamido)cyclohex-1-en-1-yl)-1H-pyrrolo[2,3-b]pyridin-6-yl)cyclopropanecarboxamide] |
| < 20 | O=C(Nc1cc(C2=CCC(NS(=O)(=O)C3CCC3)CC2)c2cc[nH]c2n1)C1CC1 (stereo not drawn) [Example 165, N-(4-(4-(cyclobutanesulfonamido)cyclohex-1-en-1-yl)-1H-pyrrolo[2,3-b]pyridin-6-yl)cyclopropanecarboxamide] |
| 20 to 200 | CCS(=O)(=O)N1CC=C(c2cc(NC(=O)C3CC3)nc3[nH]ccc23)CC1 [Example 166, N-(4-(1-(ethylsulfonyl)-1,2,3,6-tetrahydropyridin-4-yl)-1H-pyrrolo[2,3-b]pyridin-6-yl)cyclopropanecarboxamide] |
| 20 to 200 | O=C(Nc1cc(C2=CCN(S(=O)(=O)CCCF)CC2)c2cc[nH]c2n1)C1CC1 [Example 167, N-(4-(1-((3-fluoropropyl)sulfonyl)-1,2,3,6-tetrahydropyridin-4-yl)-1H-pyrrolo[2,3-b]pyridin-6-yl)cyclopropanecarboxamide] |
| 20 to 200 | O=C(Nc1cc(C2=CCN(S(=O)(=O)C3CC3)CC2)c2cc[nH]c2n1)C1CC1 [Example 168, N-(4-(1-(cyclopropylsulfonyl)-1,2,3,6-tetrahydropyridin-4-yl)-1H-pyrrolo[2,3-b]pyridin-6-yl)cyclopropanecarboxamide] |
| > 200 | O=C(Nc1cc(C2=CCN(S(=O)(=O)CC3CCOCC3)CC2)c2cc[nH]c2n1)C1CC1 [Example 169, N-(4-(1-(((tetrahydro-2H-pyran-4-yl)methyl)sulfonyl)-1,2,3,6-tetrahydropyridin-4-yl)-1H-pyrrolo[2,3-b]pyridin-6-yl)cyclopropanecarboxamide] |
| 20 to 200 | N#CCCCS(=O)(=O)N1CC=C(c2cc(NC(=O)C3CC3)nc3[nH]ccc23)CC1 [Example 170, N-(4-(1-((3-cyanopropyl)sulfonyl)-1,2,3,6-tetrahydropyridin-4-yl)-1H-pyrrolo[2,3-b]pyridin-6-yl)cyclopropanecarboxamide] |
| 20 to 200 | N#CCC1(CS(=O)(=O)N2CC=C(c3cc(NC(=O)C4CC4)nc4[nH]ccc34)CC2)CC1 [Example 171, N-(4-(1-(((1-(cyanomethyl)cyclopropyl)methyl)sulfonyl)-1,2,3,6-tetrahydropyridin-4-yl)-1H-pyrrolo[2,3-b]pyridin-6-yl)cyclopropanecarboxamide] |
| 20 to 200 | N#CC1(CS(=O)(=O)N2CC=C(c3cc(NC(=O)C4CC4)nc4[nH]ccc34)CC2)CC1 [Example 172, N-(4-(1-(((1-cyanocyclopropyl)methyl)sulfonyl)-1,2,3,6-tetrahydropyridin-4-yl)-1H-pyrrolo[2,3-b]pyridin-6-yl)cyclopropanecarboxamide] |
